Results from patent US20250213572A1, “TYK2 INHIBITORS AND USES THEREOF” (Takeda Pharmaceutical Company Limited, priority 2022, published 2025).
Values after ≈ are worked out from the molar mass of the structure shown. Where two headings read alike, the source gives them in different places.

Tests used:
[1] = type: in vivo, human
Source text: The observed accumulation ratio, between Day 1 and Day 28, in this study was consistent with the value obtained in the previous study in healthy volunteers.

panel of 631 kinases = assay: Binding screen against a panel of 631 kinases; details: 1 micromolar concentration
ALog D = type: physicochemical
TYK2 = assay: rWB IFNα IP-10 (rat whole-blood TYK2-dependent IFNα-induced IP10 assay); type: cell-based
JAK2 = JAK2 PBMC GMCSF pSTAT5; type: cell-based; details: Homo sapiens
hERG = hERG (Homo sapiens, UniProt Q12809); assay: hERG (Patch Clamp); type: cell-based
[2] = Plasma protein binding (PPB Fu), mouse; type: in vitro ADME; details: in vitro
[3] = In vivo pharmacokinetics, mouse; details: plasma
[4] = In vivo pharmacokinetics, cyno; details: cynomolgus monkey
FaSSIF/FeSSIF solubility = type: physicochemical
Kinetic solubility = type: physicochemical; details: kinetic from dmso stock
CYP450 1A2 = CYP450 1A2 (Homo sapiens, UniProt P05177); assay: CYP450 inhibition, 1A2; type: in vitro ADME
CYP450 2D6 = CYP450 2D6 (Homo sapiens, UniProt P10635); assay: CYP450 inhibition, 2D6; type: in vitro ADME
CYP450 2C19 = CYP450 2C19 (Homo sapiens, UniProt P33261); assay: CYP450 inhibition, 2C19; type: in vitro ADME
CYP450 3A4 = CYP450 3A4 (Homo sapiens, UniProt P08684); assay: CYP450 inhibition, 3A4; type: in vitro ADME; details: 3A4 (M)
[5] = tested on: TYK2-dependent IL12-induced INFγ production; assay: TYK2-dependent IL12-induced INFγ production in rat; type: in vivo; details: not shown
[6] = Pharmacokinetics in healthy volunteers (PO; QD), Study 101 and Study 104 (FIG. 11, FIG. 12); type: in vivo, human
CYP450 = CYP450 time-dependent inhibition and DDI perpetrator potential; type: in vitro ADME
[7] = Nonclinical oral absorption across species (summary); type: in vivo
[8] = human, in vivo
clinical [9] = details: human, in vivo
clinical [10] = details: human, plasma, oral
[11] = tested on: adjuvant-induced arthritis; assay: Rat adjuvant-induced arthritis (AIA) efficacy model; details: administered daily for 20 days
[12] = Three placebo-controlled Phase I studies, pooled summary; details: across the 3 Phase I studies
[13] = tested on: moderate to severe plaque psoriasis; details: for mean percent reduction from PASI score at Day 28 compared to Day 1: 28 days

Chain of hERG (Q12809 whole entry): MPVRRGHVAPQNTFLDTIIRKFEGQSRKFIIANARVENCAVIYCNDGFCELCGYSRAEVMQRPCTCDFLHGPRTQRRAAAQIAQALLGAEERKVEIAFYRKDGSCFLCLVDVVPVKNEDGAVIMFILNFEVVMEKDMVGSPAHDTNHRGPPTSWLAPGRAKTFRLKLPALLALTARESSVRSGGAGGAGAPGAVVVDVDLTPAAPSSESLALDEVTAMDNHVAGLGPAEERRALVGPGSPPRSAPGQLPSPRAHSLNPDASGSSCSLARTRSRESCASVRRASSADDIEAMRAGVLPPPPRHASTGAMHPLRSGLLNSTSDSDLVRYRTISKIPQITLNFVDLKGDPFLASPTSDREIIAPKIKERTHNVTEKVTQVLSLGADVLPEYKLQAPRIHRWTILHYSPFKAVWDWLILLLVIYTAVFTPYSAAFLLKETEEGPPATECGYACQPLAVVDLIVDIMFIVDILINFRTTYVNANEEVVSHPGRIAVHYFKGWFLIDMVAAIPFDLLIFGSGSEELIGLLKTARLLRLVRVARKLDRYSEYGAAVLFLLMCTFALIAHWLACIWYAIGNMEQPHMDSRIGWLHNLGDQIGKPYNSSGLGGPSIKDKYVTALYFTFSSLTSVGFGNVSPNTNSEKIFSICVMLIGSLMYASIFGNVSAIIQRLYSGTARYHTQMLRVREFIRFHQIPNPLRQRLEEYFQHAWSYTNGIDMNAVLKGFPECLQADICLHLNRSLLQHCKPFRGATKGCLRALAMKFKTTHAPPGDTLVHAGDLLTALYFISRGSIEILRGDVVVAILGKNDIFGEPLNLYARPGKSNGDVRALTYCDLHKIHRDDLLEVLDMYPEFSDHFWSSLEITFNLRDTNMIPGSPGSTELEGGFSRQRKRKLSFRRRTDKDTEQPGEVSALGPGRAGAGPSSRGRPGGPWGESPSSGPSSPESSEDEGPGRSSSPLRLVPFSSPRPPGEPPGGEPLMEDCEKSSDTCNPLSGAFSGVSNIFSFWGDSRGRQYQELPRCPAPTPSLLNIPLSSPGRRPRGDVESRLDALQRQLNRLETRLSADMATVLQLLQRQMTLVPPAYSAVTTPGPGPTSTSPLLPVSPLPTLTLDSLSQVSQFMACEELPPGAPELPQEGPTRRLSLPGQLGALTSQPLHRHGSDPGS
Chain of CYP450 2D6 (P10635 whole entry): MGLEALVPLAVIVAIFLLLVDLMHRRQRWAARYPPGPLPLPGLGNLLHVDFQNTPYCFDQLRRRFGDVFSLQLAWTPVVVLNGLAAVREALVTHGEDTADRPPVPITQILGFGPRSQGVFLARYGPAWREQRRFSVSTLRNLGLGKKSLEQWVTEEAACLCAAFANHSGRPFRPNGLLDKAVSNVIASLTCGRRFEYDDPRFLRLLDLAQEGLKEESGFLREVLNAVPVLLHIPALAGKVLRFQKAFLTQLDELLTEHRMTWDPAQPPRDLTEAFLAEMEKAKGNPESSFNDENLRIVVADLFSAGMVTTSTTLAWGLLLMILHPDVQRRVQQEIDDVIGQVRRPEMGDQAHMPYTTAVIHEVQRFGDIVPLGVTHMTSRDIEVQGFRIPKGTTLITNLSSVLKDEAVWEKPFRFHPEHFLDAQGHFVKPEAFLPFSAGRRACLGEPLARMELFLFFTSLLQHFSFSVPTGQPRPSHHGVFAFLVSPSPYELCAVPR
Chain of CYP450 1A2 (P05177 whole entry): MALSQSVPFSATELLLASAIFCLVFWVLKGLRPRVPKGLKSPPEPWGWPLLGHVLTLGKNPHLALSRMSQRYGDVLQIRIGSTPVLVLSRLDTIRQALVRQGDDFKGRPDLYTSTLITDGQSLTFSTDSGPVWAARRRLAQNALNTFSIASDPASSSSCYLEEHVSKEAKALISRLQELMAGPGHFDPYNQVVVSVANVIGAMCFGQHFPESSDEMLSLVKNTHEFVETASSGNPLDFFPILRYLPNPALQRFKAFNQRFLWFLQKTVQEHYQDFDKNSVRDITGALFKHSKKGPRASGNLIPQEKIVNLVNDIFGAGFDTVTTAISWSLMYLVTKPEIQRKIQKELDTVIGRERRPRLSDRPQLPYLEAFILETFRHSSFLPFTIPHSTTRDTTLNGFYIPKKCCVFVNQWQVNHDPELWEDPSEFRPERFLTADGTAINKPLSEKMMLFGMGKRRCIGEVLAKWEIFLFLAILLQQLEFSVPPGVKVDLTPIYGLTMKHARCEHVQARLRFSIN
Chain of CYP450 2C19 (P33261 whole entry): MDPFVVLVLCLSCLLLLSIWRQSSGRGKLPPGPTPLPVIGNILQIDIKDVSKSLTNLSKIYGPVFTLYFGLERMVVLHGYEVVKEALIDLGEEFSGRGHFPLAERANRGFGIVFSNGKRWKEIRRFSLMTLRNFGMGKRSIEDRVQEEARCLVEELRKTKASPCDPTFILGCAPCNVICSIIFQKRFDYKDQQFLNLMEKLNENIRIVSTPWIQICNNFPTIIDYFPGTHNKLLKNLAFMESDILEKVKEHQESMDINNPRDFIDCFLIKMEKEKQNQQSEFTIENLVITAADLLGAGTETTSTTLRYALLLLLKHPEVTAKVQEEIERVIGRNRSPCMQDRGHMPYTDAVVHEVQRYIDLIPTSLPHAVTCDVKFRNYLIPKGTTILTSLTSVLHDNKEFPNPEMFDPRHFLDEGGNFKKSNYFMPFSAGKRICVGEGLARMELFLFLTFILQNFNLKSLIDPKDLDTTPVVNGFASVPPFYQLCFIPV
Chain of CYP450 3A4 (P08684 whole entry): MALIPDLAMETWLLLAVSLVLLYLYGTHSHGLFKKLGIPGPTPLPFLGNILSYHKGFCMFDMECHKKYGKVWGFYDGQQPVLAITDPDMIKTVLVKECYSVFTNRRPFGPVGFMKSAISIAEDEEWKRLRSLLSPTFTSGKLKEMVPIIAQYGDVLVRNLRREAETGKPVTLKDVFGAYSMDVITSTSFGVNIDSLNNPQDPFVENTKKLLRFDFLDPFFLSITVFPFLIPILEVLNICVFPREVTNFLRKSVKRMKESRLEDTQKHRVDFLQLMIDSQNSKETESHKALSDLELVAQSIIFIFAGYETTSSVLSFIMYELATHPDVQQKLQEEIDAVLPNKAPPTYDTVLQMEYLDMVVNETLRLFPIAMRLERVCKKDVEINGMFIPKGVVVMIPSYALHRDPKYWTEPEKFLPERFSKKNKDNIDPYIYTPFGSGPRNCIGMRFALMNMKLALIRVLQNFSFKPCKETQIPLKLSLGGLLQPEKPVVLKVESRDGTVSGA

In the case of CNc1cc(Nc2cccn(-c3ccccn3)c2=O)nc2c(C(=O)N[C@@H]3CC[C@H]3OC)cnn12 [Compound 1, N-((1R,2R)-2-methoxycyclobutyl)-7-(methylamino)-5-((2-oxo-2H-[1,2′-bipyridin]-3-yl)amino)pyrazolo[1,5-a]pyrimidine-3-carboxamide], the “median time of mean peak plasma concentrations” value ([1]; Cohorts 1-3, 5 to 30 mg once daily) is reported as 3 to 4 h, the “inter-subject variability, CV for AUC0-tau” value ([1]; human, in vivo) is reported as 47-269% and the “inter-subject variability, CV for Cmax” value ([1]; human, in vivo) is reported as 55-111%. For the same molecule, the “inhibition of PIP51K1C” value (panel of 631 kinases) was 54 % inhibition, the “kinases inhibited with >50% inhibition in panel of 631 kinases” value (panel of 631 kinases) was “Only one kinase was inhibited with >50% inhibition” and the “ALog D” value (ALog D) was 2.0. For the same molecule, the IC50 (TYK2) was […], the IC50 (JAK2) was over 50 µM and the IC50 (hERG) was over 30 µM. It also gave a fraction unbound [2] of 0.08, a half-life ([3]; mouse) of 120 min and a clearance ([3]; 1 mg/kg, Mouse, 1 mpk IV dose, read-out: Clp, obs) of 16 mL/min/kg. It also gave a Vd ([3]; 1 mg/kg, Mouse, 1 mpk IV dose, read-out: Vss) of 1.3 L/kg, a Tmax ([3]; 30 mg/kg, Mouse, PO 30 mpk) of 24 min and a bioavailability ([3]; 30 mg/kg, Mouse, PO 30 mpk) of 81%. It also gave a clearance ([4]; in vivo, 1 mg/kg, Cyno, 1 mpk IV dose, read-out: Clp, obs) of 7 mL/min/kg, a Vd ([4]; in vivo, 1 mg/kg, Cyno, 1 mpk IV dose, read-out: Vss) of 1.9 L/kg and a Tmax ([4]; in vivo, 5 mg/kg, Cyno, PO 5 mpk) of 3 h. It also gave a half-life ([4]; plasma) of 228 min, a solubility (FaSSIF/FeSSIF solubility; FaSSIF, read-out: FaSSIF solubility) of 13 µg/mL (≈ 28.2 µM) and a solubility (FaSSIF/FeSSIF solubility; FeSSIF, read-out: FeSSIF solubility) of 70 µg/mL (≈ 152 µM). For the same molecule, the solubility kinetic (Kinetic solubility) was 32 µM (≈ 14.7 µg/mL), the IC50 (CYP450 1A2) was over 30 µM and the IC50 (CYP450 2D6) was over 30 µM. The IC50 (CYP450 2C19) was over 8 µM, the IC50 (CYP450 3A4) was over 8e-06 M and the “TYK2-dependent IL12-induced INFγ production” value [5] was “Concentration-dependent suppression”. The “dose proportionality of Cmax and AUC0-24” value ([6]; 5-75 mg) was “increased in an approximately dose-proportional manner”, the half-life ([6]; human, plasma, po, across doses, read-out: Oral T1/2) was 990 to 1840 min and the Tmax ([6]; human, plasma, day 1 and day 14, PO QD, read-out: median Tmax of peak mean plasma concentrations) was 4 to 6 h. The CYP450 time-dependent inhibition (CYP450) was “no time-dependent inhibition”, the DDI perpetrator potential (CYP450) was “low at clinically relevant exposures” and the absorption [7] was “good absorption across species”. The “overall safety and tolerability” value [8] was “generally safe and well tolerated”, the CL renal (clinical [9]) was 1 to 5 mL/min and the Tmax (clinical [9]) was 3 to 5 h. It also gave an AUC(0-inf) (clinical [9]; 75 mg) of 589 to 8370 ng·h/mL, a Cmax (clinical [9]; 75 mg) of 21.6 to 237 ng/mL and an AUC(0-inf) (clinical [9]; 100 mg) of 10700 ng·h/mL. The AUC(0-inf) (clinical [9]; 150 mg) was 12200 ng·h/mL, the Cmax (clinical [9]; 200 mg) was 232 to 250 ng/mL and the Tmax (clinical [10]) was 3 to 6 h. The half-life (clinical [10]) was 1020 to 2220 min, the “disease activity in rat AIA model” value [11] was “suppressed disease activity in a dose-related manner” and the “serious adverse events (SAEs) or deaths” value [12] was “No serious adverse events (SAEs) or deaths were observed”. For the same molecule, the “subjects with TEAEs” value (5 mg, 3/8) was 38%, the “subjects with TEAEs” value (10 mg, 4/7) was 57% and the “subjects with TEAEs” value (30 mg, 4/6) was 67%. The severe adverse events (30 mg, led to discontinuation of treatment) was “one severe (Grade 3) adverse event of neutropenia”, the “deaths or serious AEs” value (5, 10 or 30 mg daily, 28 days) was “no deaths or serious AEs” and the “overall safety and tolerability” value (5, 10 or 30 mg daily, 28 days) was “generally safe and well tolerated”. For the same molecule, the “acneiform dermatitis, papular rash, aphthous ulcer” value (all doses) was “no events of acneiform dermatitis, papular rash, or aphthous ulcer”, the “vital signs, physical exam, ECG” value (all doses) was “no clinically significant changes in vital signs, physical exam, or ECG” and the “mean percent reduction from PASI score at Day 28 compared to Day 1” value (“mean percent reduction from PASI score” for short) ([13]; 5 mg daily) was 30%. The PASI-50 achieved ([13]; 5 mg, 1/8, Day 28) was 13%, the “mean PASI on Day 28” value ([13]; 5 mg, 15.4 on Day 1) was 10.9 and the “mean percent reduction from PASI score” value ([13]; 10 mg daily) was 47%. For the same molecule, the PASI-50 achieved ([13]; 10 mg, 4/7, Day 28) was 57%, the “mean PASI on Day 28” value ([13]; 10 mg, 18.2 on Day 1) was 9.6 and the “mean percent reduction from PASI score” value ([13]; 30 mg daily) was 48%. The “PASI 90 achieved” value ([13]; 30 mg group, Day 28) was “The same subject also achieved PAST 90”, the PASI-75 achieved ([13]; 30 mg, 1/5, Day 28) was 20% and the PASI-50 achieved ([13]; 30 mg, 2/5, Day 28) was 40%. The “mean PASI on Day 28” value ([13]; 30 mg, 20.0 on Day 1) was 10.4, the PASI-75 achieved ([13]; 5 and 10 mg groups, Day 28) was “not achieved in the other groups” and the sPGA score ([13]; 30-mg cohort, Day 28) was “one subject in the 30-mg cohort achieving an sPGA of 1”.
